Legend:
benzodiazepine receptor [1] = test: in vivo benzodiazepine receptor binding (3H-flunitrazepam binding in brain); settings: mouse
Protocol: In vivo benzodiazepine receptor binding is determined essentially as described in Eur. J. Pharmacol. 48, 213 (1978) and Nature 275, 551 (1978). Test compounds in a corn starch vehicle are administered orally or intraperitoneally to mice or rats. A decrease in the binding of ^3 H-flunitrazepam in the brain of drug-treated animals (as compared with the binding observed in animals treated with vehicle alone) is indicative of benzodiazepine receptor binding by the test compound.

benzodiazepine receptor [2] = test: in vitro benzodiazepine receptor binding assay, tritiated flunitrazepam as radioactive ligand; settings: 0.5 nM tritiated flunitrazepam; read-out: IC50, concentration required to inhibit the specific binding of tritiated flunitrazepam by 50%
Protocol: The benzodiazepine receptor binding properties indicative of the nervous system regulatory activity of said new compounds are determined in the receptor binding assay in vitro, e.g. similarly to that in Nature 266, 732 (1977) or Proc. Nat. Acad. Sci. USA 74, 3805 (1977), using tritiated flunitrazepam as the radioactive ligand. The concentration of the compounds of this invention, required to inhibit the specific binding of 0.5 nM of tritiated flunitrazepam by 50%, i.e. the IC50, is determined graphically.

rat = test: Metrazole (pentylenetetrazole) test for anticonvulsant activity; type: in vivo; settings: po
Source text: Anticonvulsant effects are observed, for example in the standard Metrazole (pentylenetetrazole) test for assessing anticonvulsant activity, e.g. orally in the rat as described in U.S. Pat. No. 4,479,955.

Cl.c1ccc(-c2nnc3n2-c2ccccc2Cn2cccc2-3)nc1 [Example 1, 3-(2-Pyridinyl)-9H-pyrrolo[2,1-c]-1,2,4-triazolo[4,3-a][1,4]benzodiazepine Hydrochloride]
inhibition of flunitrazepam binding in vivo (benzodiazepine receptor [1]; 30 mg/kg p.o.): about 67%
IC50 (benzodiazepine receptor [2]): ~4 nM
ED50 (rat): ~3 mg/kg

Cl.Clc1ccc2c(c1)-n1c(-c3ccccn3)nnc1-c1cccn1C2 [Example 3, 6-Chloro-3-(2-pyridinyl)-9H-pyrrolo[2,1-c]-1,2,4-triazolo[4,3-a][1,4]benzodiazepine Hydrochloride]
inhibition of flunitrazepam binding in vivo (benzodiazepine receptor [1]; 5.3 mg/kg p.o.): ~50%
IC50 (benzodiazepine receptor [2]): ~0.7 nM

Cl.FC(F)(F)c1ccc2c(c1)-n1c(-c3ccccn3)nnc1-c1cccn1C2 [Example 4, 6-Trifluoromethyl-3-(2-pyridinyl)-9H-pyrrolo[2,1-c]-1,2,4-triazolo[4,3-a][1,4]benzodiazepine Hydrochloride]
inhibition of flunitrazepam binding in vivo (benzodiazepine receptor [1]; 0.6 mg/kg p.o.): ~50%
IC50 (benzodiazepine receptor [2]): ~0.4 nM

COc1cc2c(cc1OC)-n1c(-c3ccccn3)nnc1-c1cccn1C2.Cl [Example 7f, 6,7-dimethoxy-3-(2-pyridinyl)-9H-pyrrolo[2,1-c]-1,2,4-triazolo[4,3-a][1,4]benzodiazepine hydrochloride]
inhibition of flunitrazepam binding in vivo (benzodiazepine receptor [1]; 30 mg/kg p.o.): ~75%
IC50 (benzodiazepine receptor [2]): ~1 nM

— patent US4596799A, “9H-pyrrolo[2,1-c]-1,2,4-triazolo[4,3-a][1,4]benzodiazepines” (Ciba-Geigy Corporation, priority 1985, dated 1986)
